Key:
CXCR2 = target: T1, CXCR2 (Homo sapiens, UniProt P25025); assay: Live cell NanoBRET saturation binding (HEK293T cells expressing CXCR2_Nluc)
T1 construct: Promega pNLF1-C (Nluc) #CXCR20TN00; host or cells: HEK293T, transient transfection (PEI)
T1 sequence (P25025 1-360): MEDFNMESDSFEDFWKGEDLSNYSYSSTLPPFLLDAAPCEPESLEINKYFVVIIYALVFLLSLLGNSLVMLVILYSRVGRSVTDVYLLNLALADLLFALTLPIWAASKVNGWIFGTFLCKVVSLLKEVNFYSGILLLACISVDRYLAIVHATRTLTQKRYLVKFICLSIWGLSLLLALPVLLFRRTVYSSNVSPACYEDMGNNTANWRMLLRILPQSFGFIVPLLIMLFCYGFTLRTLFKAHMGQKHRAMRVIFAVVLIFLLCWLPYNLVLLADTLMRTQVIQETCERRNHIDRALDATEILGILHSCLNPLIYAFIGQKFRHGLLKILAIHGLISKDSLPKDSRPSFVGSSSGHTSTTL
Description: HEK293T cells were transfected with the plasmid (5.5 μg) for CXCR2_Nluc using polyethylenimine (PEI) as transfection reagent (PEI/DNA ratio 3:1). After 24 h at 37 °C and 5% CO2, the cells were detached with DMEM and transferred to a white F-bottom 384-well plate (10,000 cells/well), which was coated with 5 μL/well poly-D-lysine (0.1 mg/mL, dissolved in water), and incubated for further 24 h at 37 °C and 5% CO2. Subsequently, the cells were washed with phosphate-buffered saline (Gibco DPBS, with CaCl2 and MgCl2). The assay medium (Gibco DMEM/F12, 15 mM HEPES, no phenol red supplemented with 5% FBS) was added and the cells were incubated at 37 °C for 30 min. […]
After 120 min of incubation at 37 °C, 5 μL of a furimazine solution (final assay dilution: 1:2500, diluted with assay medium) was added. Subsequent to a further incubation of 5 min in the dark at 37 °C, BRET ratios were measured with a CLARIOstar microplate reader using 620/10 and 475/30 nm emission filters. Total, nonspecific and specific binding, which was calculated as a difference of total and nonspecific binding, were analyzed using the algorithms for one-site saturation binding in PRISM9.5 (GraphPad). To determine the inhibition constants (Ki) of the potential competitors, data were normalized to total and nonspecific binding and analyzed using the one-site-fit Ki equation in PRISM9.5 (GraphPad).

CXCR1 = target: T2, CXCR1 (Homo sapiens, UniProt P25024); assay: Membrane-based NanoBRET saturation assay, selectivity (CXCR1_Nluc membranes); format: binding; details: cell-free
T2 construct: host or cells: HEK293T, transient; membrane preparation
T2 sequence (P25024 1-350): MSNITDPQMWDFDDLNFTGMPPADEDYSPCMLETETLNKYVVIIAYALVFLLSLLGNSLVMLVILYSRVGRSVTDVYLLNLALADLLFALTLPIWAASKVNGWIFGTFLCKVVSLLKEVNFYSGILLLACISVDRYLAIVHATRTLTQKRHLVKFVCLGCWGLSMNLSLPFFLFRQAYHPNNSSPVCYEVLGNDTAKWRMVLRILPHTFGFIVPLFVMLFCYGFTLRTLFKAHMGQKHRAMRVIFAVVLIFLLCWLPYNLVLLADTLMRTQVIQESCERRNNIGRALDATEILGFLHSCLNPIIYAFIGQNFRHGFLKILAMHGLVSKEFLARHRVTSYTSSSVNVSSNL
Description: For the establishment of our NanoBRET binding assay, we referred to a recently published protocol.[45] The fluorescent ligands (9a–c) were dissolved in DMSO (1 mM) and further diluted to varying concentrations in an assay buffer (50 mM Na2HPO4, 50 mM KH2PO4, pH 7.4, 1 mg/mL saponin, 5% FBS) and 5 μL of these dilutions were pipetted to a 384-well plate. To determine the total binding, 5 μL of the assay buffer was added to the corresponding wells, while 5 μL of a solution of 3 in the assay buffer (final assay concentration: 1 μM) was used to determine nonspecific binding. Then, 20 μL of the membrane preparations diluted in the assay buffer (2 μg total protein/well) were added and the plates were incubated for 90 min at 37 °C. Subsequently, 5 μL of a furimazine solution (Promega, Mannheim, Germany, final assay dilution: 1:5000) was added to each well (final assay volume: 35 μL) before measuring luminescence with a CLARIOstar microplate reader using 620/10 and 475/30 nm emission filters after 5 min of incubation in the dark. Bioluminescence resonance energy transfer (BRET) was determined as the ratio of acceptor fluorescence and donor luminescence. The algorithms for one-site saturation binding from PRISM9.5 (GraphPad) were utilized to analyze total, nonspecific, and specific binding. Specific binding signals were calculated as a difference of total and nonspecific binding. If required, netBRET values were calculated as the difference between total BRET values and the values obtained in the absence of a fluorescent ligand. For selectivity studies with CCR2, CCR7, CCR9, and CXCR1, we modified the procedure described above.

Kd (CXCR2; live HEK293T cells transiently expressing CXCR2_Nluc, 37 °C, read-out: Kd (equilibrium saturation binding)): 0.25 ± 0.01 nM | passage of the cell membrane (CXCR2; live HEK293T cells, inferred from cellular binding): able to pass the cell membrane | Kd (CXCR1; CXCR1_Nluc membranes): 198 ± 29 nM | selectivity for CXCR2 compared to CXCR1 (CXCR1; from Kd values): ~50 fold
SMILES: Cc1ccc([C@H](Nc2c(Nc3cccc(C(=O)NCc4cn(CCOCCOCCOCCNC(=O)c5ccc(C(=O)[O-])c(-c6c7ccc(=[N+](C)C)cc-7oc7cc(N(C)C)ccc67)c5)nn4)c3O)c(=O)c2=O)C(C)(C)C)o1 [9a, (R)-4-((2-(2-(2-(2-(4-((3-((2-((2,2-Dimethyl-1-(5-methylfuran-2-yl)propyl)amino)-3,4-dioxocyclobut-1-en-1-yl)amino)-2-hydroxybenzamido)methyl)-1H-1,2,3-triazol-1-yl)ethoxy)ethoxy)ethoxy)ethyl)carbamoyl)-2-(6-(dimethylamino)-3-(dimethyliminio)-3H-xanthen-9-yl)benzoate]

Source: PMC10388362, “Fluorescent Ligands Enable Target Engagement Studies for the Intracellular Allosteric Binding Site of the Chemokine Receptor CXCR2” (Journal of Medicinal Chemistry, 2023)
